Where two headings read alike, the source gives them in different places. Non-standard residues stand in square brackets, D forms with d. Residues, ends and D or L forms follow the SMILES beside them. *: point of attachment. Lys(Me3) = C[N+](C)(C)CCCC[C@H](N)C(=O)O; Octanoyl = CCCCCCCC(=O)*
Assays:
E. faecium ATCC 27270 = type: cell-based, Enterococcus faecium
Procedure: (§1) The synergy of the UTBLPs with various antibiotics was assessed using checkerboard assay as previously described. Briefly, the combination of antibiotic and OMP at varying concentrations were incubated with bacterial inoculum (5 × 10^5 CFU/mL final concentration) at 37 °C for 18 h. Growth in the form of turbidity was confirmed using an EMax Plus microplate reader (Molecular Devices, Union City, CA, USA) at 590 nm. Fractional inhibitory concentration index (FICI) was used to evaluate the interaction between the antibiotic and the OMP. FICI is the sum of the FIC of the antibiotic and the FIC of the OMP. The FIC value is calculated by dividing the MIC of the agents in combination by the MIC of the agent alone. FICI ≤ 0.5 is synergistic, 0.5 < x ≤ 4 is additive, and >4 is antagonistic.

E. coli 94393 [1] = assay: microbe, parasite or virus in culture; type: cell-based, Escherichia coli; conditions: 94393, 18 h
Procedure: (§2) The in vitro antibacterial activity of the UTBLPs was assessed against wild-type and clinically isolated bacterial strains. To obtain the MIC of the compounds, the microbroth dilution susceptibility assay was performed according to the Clinical and Laboratory Standards Institute (CLSI, Wayne, PA, USA) guidelines and as previously described. Briefly, the compounds at varying concentrations were incubated with bacterial inoculum (5 × 10^5 CFU/mL final concentration) at 37 °C for 18 h. Growth in the form of turbidity was confirmed using an EMax Plus microplate reader (Molecular Devices, San Jose, CA, USA) at 590 nm.

E. coli 94474 [2] = assay: microbe, parasite or virus in culture; type: cell-based, Escherichia coli; conditions: 94474, 18 h
Procedure: as §2

[3] = test system: P. aeruginosa PA259-96196; assay: microbe, parasite or virus in culture; type: cell-based, Pseudomonas aeruginosa; conditions: PA259-96196, 18 h
Procedure: as §2

[4] = test system: P. aeruginosa PA262-101856; assay: microbe, parasite or virus in culture; type: cell-based, Pseudomonas aeruginosa; conditions: PA262-101856, 18 h
Procedure: as §2

MRSA ATCC 33592 = type: cell-based, Staphylococcus aureus; conditions: ATCC 33592, 18 h
Procedure: as §2

S. aureus ATCC 29213 = type: cell-based, Staphylococcus aureus; conditions: ATCC 29213, 18 h
Procedure: as §2

E. faecalis ATCC 29212 = type: cell-based, Enterococcus faecalis; conditions: ATCC 29212, 18 h
Procedure: as §2

P. aeruginosa PAO1 = type: cell-based, Pseudomonas aeruginosa; conditions: for MICUTBLP: UTBLP alone
Procedure: as §1

[5] = test system: P. aeruginosa PA259-96196; type: cell-based, Pseudomonas aeruginosa; conditions: for MICUTBLP: UTBLP alone
Procedure: as §1

[6] = test system: P. aeruginosa PA262-101856; type: cell-based, Pseudomonas aeruginosa; conditions: for MICUTBLP: UTBLP alone
Procedure: as §1

E. coli 94393 [7] = type: cell-based, Escherichia coli; conditions: for MICUTBLP: UTBLP alone
Procedure: as §1

E. coli ATCC 25922 = type: cell-based, Escherichia coli; conditions: for MICUTBLP: UTBLP alone
Procedure: as §1

E. coli 94474 [8] = type: cell-based, Escherichia coli; conditions: for MICUTBLP: UTBLP alone
Procedure: as §1

[9] = UTBLP in combination with chloramphenicol
[10] = chloramphenicol in combination with the UTBLP
[11] = UTBLP in combination with niclosamide
[12] = UTBLP in combination with novobiocin
[13] = UTBLP in combination with rifampicin
[14] = niclosamide in combination with the UTBLP
[15] = novobiocin in combination with the UTBLP
[16] = rifampicin in combination with the UTBLP

MICUTBLP (E. faecium ATCC 27270; UTBLP alone, plate with chloramphenicol): > 128 µg/mL
MICUTBLP [MICcombo] (E. faecium ATCC 27270; [9]): 0.25 µg/mL
MICchloramphenicol [MICcombo] (E. faecium ATCC 27270; [10]): 4 µg/mL
MIC (E. coli 94393 [1]): 128 µg/mL
MIC (E. coli 94474 [2]): > 128 µg/mL
MIC [3]: > 128 µg/mL
MIC [4]: > 128 µg/mL
MIC (MRSA ATCC 33592): >128 µg/mL
MIC (S. aureus ATCC 29213): >128 µg/mL
MIC (E. faecalis ATCC 29212): 128 µg/mL
MICUTBLP (P. aeruginosa PAO1; plate with chloramphenicol): > 128 µg/mL
MICUTBLP (P. aeruginosa PAO1; plate with niclosamide): > 128 µg/mL
MICUTBLP (P. aeruginosa PAO1; plate with novobiocin): > 128 µg/mL
MICUTBLP (P. aeruginosa PAO1; plate with rifampicin): > 128 µg/mL
MICUTBLP [MICcombo] (P. aeruginosa PAO1; [9]): 0.25 µg/mL
MICUTBLP [MICcombo] (P. aeruginosa PAO1; [11]): 0.25 µg/mL
MICUTBLP [MICcombo] (P. aeruginosa PAO1; [12]): 0.25 µg/mL
MICUTBLP [MICcombo] (P. aeruginosa PAO1; [13]): 0.25 µg/mL
MICantibiotic [MICcombo] (P. aeruginosa PAO1; [10]): 16 µg/mL
MICantibiotic [MICcombo] (P. aeruginosa PAO1; [14]): 1024 µg/mL
MICantibiotic [MICcombo] (P. aeruginosa PAO1; [15]): 512 µg/mL
MICantibiotic [MICcombo] (P. aeruginosa PAO1; [16]): 16 µg/mL
MICUTBLP ([5]; plate with novobiocin): > 128 µg/mL
MICUTBLP ([5]; plate with rifampicin): > 128 µg/mL
MICUTBLP [MICcombo] [5, 12]: 16 µg/mL
MICUTBLP [MICcombo] [5, 13]: 16 µg/mL
MICantibiotic [MICcombo] [5, 15]: 1024 µg/mL
MICantibiotic [MICcombo] [5, 16]: 16 µg/mL
MICUTBLP ([6]; plate with novobiocin): > 128 µg/mL
MICUTBLP ([6]; plate with rifampicin): > 128 µg/mL
MICUTBLP [MICcombo] [6, 12]: 16 µg/mL
MICUTBLP [MICcombo] [6, 13]: 16 µg/mL
MICantibiotic [MICcombo] [6, 15]: 1024 µg/mL
MICantibiotic [MICcombo] [6, 16]: 512 µg/mL
MICUTBLP (E. coli 94393 [7]; plate with novobiocin): 128 µg/mL
MICUTBLP (E. coli 94393 [7]; plate with rifampicin): 128 µg/mL
MICUTBLP [MICcombo] (E. coli 94393 [7]; [12]): 16 µg/mL
MICUTBLP [MICcombo] (E. coli 94393 [7]; [13]): 16 µg/mL
MICantibiotic [MICcombo] (E. coli 94393 [7]; [15]): 16 µg/mL
MICUTBLP (E. coli ATCC 25922; plate with chloramphenicol): > 128 µg/mL
MICUTBLP (E. coli ATCC 25922; plate with niclosamide): > 128 µg/mL
MICUTBLP (E. coli ATCC 25922; plate with novobiocin): > 128 µg/mL
MICUTBLP (E. coli ATCC 25922; plate with rifampicin): > 128 µg/mL
MICUTBLP [MICcombo] (E. coli ATCC 25922; [9]): 8 µg/mL
MICUTBLP [MICcombo] (E. coli ATCC 25922; [11]): 8 µg/mL
MICUTBLP [MICcombo] (E. coli ATCC 25922; [12]): 16 µg/mL
MICUTBLP [MICcombo] (E. coli ATCC 25922; [13]): 16 µg/mL
MICantibiotic [MICcombo] (E. coli ATCC 25922; [10]): 2 µg/mL
MICantibiotic [MICcombo] (E. coli ATCC 25922; [14]): 8 µg/mL
MICantibiotic [MICcombo] (E. coli ATCC 25922; [15]): 2 µg/mL
MICantibiotic [MICcombo] (E. coli ATCC 25922; [16]): 1 µg/mL
MICUTBLP (E. coli 94474 [8]; plate with novobiocin): > 128 µg/mL
MICUTBLP (E. coli 94474 [8]; plate with rifampicin): > 128 µg/mL
MICUTBLP [MICcombo] (E. coli 94474 [8]; [12]): 8 µg/mL
MICUTBLP [MICcombo] (E. coli 94474 [8]; [13]): 16 µg/mL
MICantibiotic [MICcombo] (E. coli 94474 [8]; [15]): 64 µg/mL
MICantibiotic [MICcombo] (E. coli 94474 [8]; [16]): 4 µg/mL
Structure (SMILES): CCCCCCCC(=O)NCCCC[C@H](NC(=O)CCCCCCC)C(=O)N[C@@H](CCCC[N+](C)(C)C)C(=O)N[C@@H](CCCC[N+](C)(C)C)C(=O)N[C@@H](CCCC[N+](C)(C)C)C(=O)N[C@@H](CCCC[N+](C)(C)C)C(N)=O [UTBLP 8] (Octanoyl-K(Octanoyl)[Lys(Me3)][Lys(Me3)][Lys(Me3)][Lys(Me3)]-NH2)
Interpretation (E. faecium ATCC 27270; UTBLP + chloramphenicol): Additive (0.5 < x ≤ 4 is additive)
Interpretation (P. aeruginosa PAO1; UTBLP + chloramphenicol): Additive (0.5 < x ≤ 4 is additive)
Interpretation (P. aeruginosa PAO1; UTBLP + niclosamide): Additive (0.5 < x ≤ 4 is additive)
Interpretation (P. aeruginosa PAO1; UTBLP + novobiocin): Additive (0.5 < x ≤ 4 is additive)
Interpretation (P. aeruginosa PAO1; UTBLP + rifampicin): Additive (0.5 < x ≤ 4 is additive)
Interpretation ([5]; UTBLP + novobiocin): Additive (0.5 < x ≤ 4 is additive)
Interpretation ([5]; UTBLP + rifampicin): Additive (0.5 < x ≤ 4 is additive)
Interpretation ([6]; UTBLP + novobiocin): Additive (0.5 < x ≤ 4 is additive)
Interpretation ([6]; UTBLP + rifampicin): Additive (0.5 < x ≤ 4 is additive)
Interpretation (E. coli 94393 [7]; UTBLP + novobiocin): Synergy (FICI ≤ 0.5 is synergistic)
Interpretation (E. coli 94393 [7]; UTBLP + rifampicin): Additive (0.5 < x ≤ 4 is additive)
Interpretation (E. coli ATCC 25922; UTBLP + chloramphenicol): Synergy (FICI ≤ 0.5 is synergistic)
Interpretation (E. coli ATCC 25922; UTBLP + niclosamide): Synergy (FICI ≤ 0.5 is synergistic)
Interpretation (E. coli ATCC 25922; UTBLP + novobiocin): Synergy (FICI ≤ 0.5 is synergistic)
Interpretation (E. coli ATCC 25922; UTBLP + rifampicin): Additive (0.5 < x ≤ 4 is additive)
Interpretation (E. coli 94474 [8]; UTBLP + novobiocin): Synergy (FICI ≤ 0.5 is synergistic)
Interpretation (E. coli 94474 [8]; UTBLP + rifampicin): Additive (0.5 < x ≤ 4 is additive)

— paper PMC8963254, “Effects of Lysine N-ζ-Methylation in Ultrashort Tetrabasic Lipopeptides (UTBLPs) on the Potentiation of Rifampicin, Novobiocin, and Niclosamide in Gram-Negative Bacteria” (Antibiotics, 2022)
